Like-named read-outs stand apart in the source and are kept apart here.
Key:
Assay type in all cases: in vivo, human
[1] = Preliminary efficacy evaluation (FPG, 2 h PPG, HbA1c, GA); details: patients with T2DM; 100 mg once daily; day 14
Method: Blood samples for determination of fasting plasma glucose (FPG) and 2 hour postprandial plasma glucose (2 h PPG) were collected on day -2, day 7 and day 14. Additionally, blood samples for determination of glycated Hemoglobin A1C (HbA1c) and glycated Albumin (GA) were collected on day -2 and day 14. The changes of the above indexes relative to pre-treatment baseline (day -2) were evaluated and compared to investigate the preliminary efficacy of investigational product.

[2] = Plasma pharmacokinetics after single and multiple oral doses (non-compartmental analysis); details: patients with T2DM; for AUC(0-t): po, 100 mg
Method: This was a single-center, randomized, double-blind, placebo and positive-controlled, single and multiple oral-dose study. A total of 32 Chinese adults diagnosed with T2DM were recruited for this study and allocated into two dosage groups: 50 mg and 100 mg, each consisting of 16 participants. […] The positive control was designed as open label. […] Subjects underwent medication randomization on day -1, and were assigned the corresponding investigational products. They were orally administered to the drug once every morning on fasting condition for 14 consecutive days. […] After finished the dosing, another OGTT was performed on day 15. Blood samples were collected at designated time points for the analysis of PK/PD and exploratory indicators. Subjects were discharged after completion of the safety assessments on day 19. […] PK parameters were calculated using non-compartmental analysis with Phoenix WinNonlin (version 8.1, Certara, Co., Princeton, NJ, United States). Peak plasma concentration after administration (Cmax) and time to reach Cmax (Tmax) were obtained directly from the observed data, elimination half-life (t1/2) was calculated as ln2/λz using the best fit mode, where λz was the terminal elimination rate constant. Area under the plasma concentration-time curve from zero to the last measurable concentration (AUC0-t) was estimated using the linear trapezoidal method and AUC from zero to infinity (AUC0-∞) was calculated as AUC0-t+Ct/λz, where Ct was the last measured concentration. […] Apparent total plasma clearance after non-intravenous (CL/F) and apparent volume of distribution in terminal phase after non-intravenous (Vz/F) were calculated as Dose/AUC0-∞ and CL/λz, respectively.

plasma active GLP-1 = experiment: Plasma active GLP-1 concentration change from baseline (ELISA); details: patients with T2DM
Method: Blood samples for GLP-1 activity evaluation were collected at the same time points as for PK. 2 mL blood samples were collected for GLP-1 activity detection (20 μL DPP-4i was added to blood-collecting tubes beforehand). The tubes were placed on ice until centrifugation. The blood samples were centrifuged at 2-8°C, 1500 g for 10 minutes within 1 hour after blood collection. After centrifugation, the blood samples were evenly divided into two aliquots and stored at -80 ± 10°C. Plasma active GLP-1 concentrations were determined using a validated ELISA method. Linear calibration curves were obtained in the concentration range of 0.017-276 pM ([31]).
The change of GLP-1 concentration from baseline (△GLP-1) was calculated as follows:
Δ [GLP-1] = [GLP-1] (t) - [GLP-1] (0)
The calculated parameters for GLP-1 activity were as follows: the baseline GLP-1 value before dosing (Baseline), Rmax, TRmax, AUEC0-t, AUEC0-24h, GLP-1 concentration change at 2 h after lunch (△GLP-1-6h), GLP-1 concentration change at 2 h after dinner (△GLP-1-12h), Rmin on day 14, and the average response on day 14 (Ravg).

[3] = test system: glucose, insulin, C-peptide, and glucagon; experiment: Oral glucose tolerance test (OGTT): glucose, insulin, C-peptide, glucagon; details: patients with T2DM
Method: To assess the impact of investigational products on glucose, insulin, C-peptide, and glucagon, OGTT tests were conducted on day -1 and day 15 following a fasting period of more than 8 hours. Subjects received a 75 g oral glucose dose and blood samples (1.5 mL for glucose, 3.5 mL for insulin and C-peptide, 2 mL for glucagon) were collected at 0, 0.167, 0.5, 1, 1.5, 2, and 3 h after ingestion of glucose. The PD parameters (AUEC0-t) for glucose, insulin, C-peptide, and glucagon were calculated by using drug effect module of non-compartmental method with Phoenix WinNonlin.

[4] = Safety and tolerability assessments (adverse events); details: patients with T2DM, 14 days
Method: Safety and tolerability were evaluated by monitoring adverse events (AEs), laboratory tests (including blood routine, urine routine, stool routine, blood biochemical test and coagulation function), vital signs, physical examination, 12-lead electrocardiogram and other indicators. AEs were monitored and collected throughout the study. Descriptive analysis of the type and intensity of AEs were conducted according to NCICTC AE5.0.

[5] = 100 mg oral once daily, day 14, median (range)
[6] = cetagliptin group (50 or 100 mg, n=20) / sitagliptin group (100 mg, n=8)

N[C@@H](CC(=O)N1CCn2c(nnc2C(F)(F)F)C1)Cc1cc(F)c(F)cc1F [Sitagliptin, sitagliptin, reference compound]
decrease of HbA1c compared with baseline [1]: 0.44%
half-life ([2]; human, in vivo, 100 mg oral once daily, day 14): 9.12 ± 0.664 h
AUC(0-t) ([2]; human, plasma, 100 mg oral once daily, day 14, read-out: AUC0-24h): 3760 ± 748 ng·h/mL
AUC(0-t) ([2]; human, plasma, 100 mg oral once daily, day 14, read-out: AUC0-t): 4290 ± 783 ng·h/mL
AUC(0-t) ([2]; human, plasma, 100 mg oral, day 1, read-out: AUC0-24h): 3340 ± 522 ng·h/mL
AUC(0-inf) ([2]; human, plasma, 100 mg oral once daily, day 14): 4380 ± 789 ng·h/mL
Cmax ([2]; human, plasma, 100 mg oral once daily, day 14, read-out: Cmax,ss): 419 ± 137 ng/mL
Vd/F ([2]; human, plasma, 100 mg oral once daily, day 14, read-out: Vz,ss/F): 362 ± 75.9 L
Tmax ([2]; human, plasma, 100 mg oral, day 1, median (range), read-out: Tmax): 1.5 h
CLss/F ([2]; 100 mg oral once daily, day 14): 27.5 ± 5.12 L/h
Cavg ([2]; 100 mg oral once daily, day 14): 157 ± 31.2 ng/mL
Tmax,ss [2, 5]: 3.00 (0.500-5.00) h
Cmax ([2]; 100 mg oral, day 1): 394 ± 105 ng/mL
time of daily dosing after which steady-state conditions were reached ([2]; once daily dosing, trough concentrations days 7, 10, 14): 1 week
GLP-1 Baseline (value before dosing) (plasma active GLP-1; 100 mg group, day 1 before dosing): 0.442 ± 0.406 pM
R0h,ss (baseline plasma active GLP-1 on day 14) (plasma active GLP-1; 100 mg oral once daily, day 14): 1.700 ± 0.851 pM
△GLP-1-6h (change at 2 h after lunch) (plasma active GLP-1; 100 mg oral once daily, day 14): 6.553 ± 3.739 pM
△GLP-1-12h (change at 2 h after dinner) (plasma active GLP-1; 100 mg oral once daily, day 14): 5.775 ± 4.299 pM
△GLP-1 Ravg,ss (plasma active GLP-1; 100 mg oral once daily, day 14): 3.821 ± 2.361 pM
△GLP-1 Rmax,ss (plasma active GLP-1; 100 mg oral once daily, day 14): 8.080 ± 3.592 pM
R0h,ss (baseline plasma active GLP-1 on day 14) (plasma active GLP-1; 100 mg oral once daily, day 14, listed as sitagliptin): 1.700 pM
△GLP-1 TRmax,ss (plasma active GLP-1; [5]): 5.00 (5.00-6.00) h
△GLP-1-6h (change at 2 h after lunch) (plasma active GLP-1; 100 mg oral, day 1): 3.491 ± 1.703 pM
△GLP-1-12h (change at 2 h after dinner) (plasma active GLP-1; 100 mg oral, day 1): 3.764 ± 2.490 pM
△GLP-1 AUEC0-24h (plasma active GLP-1; 100 mg oral, day 1): 61.2 ± 28.6 pM·h
△GLP-1 Rmax (plasma active GLP-1; 100 mg oral, day 1): 5.901 ± 2.375 pM
△GLP-1 TRmax (plasma active GLP-1; 100 mg oral, day 1, median (range)): 7.00 (5.00-12.00) h
glucose AUEC0-t (OGTT) ([3]; 100 mg group, day -1 (baseline before dosing)): 44.07 ± 5.74 mmol·h/L
glucose AUEC0-t (OGTT) ([3]; day 15 after 100 mg once daily for 14 days): 43.40 ± 6.51 mmol·h/L
intensity of drug-related adverse events ([4]; cetagliptin 50 or 100 mg, sitagliptin 100 mg): mild
number of drug-related AEs [4, 6]: 7 AEs
number of subjects reporting drug-related AEs [4, 6]: 3 subjects

Source: PMC10961402, “Safety, tolerability, pharmacokinetics and pharmacokinetic-pharmacodynamic modeling of cetagliptin in patients with type 2 diabetes mellitus” (Frontiers in Endocrinology, 2024)
